Here are results for 53 compounds from patent publication US8163737B2 (Vertex Pharmaceuticals Incorporated, priority 2006, dated 2012).

endogenous CGRP receptor, sequence (Q16602 23-461): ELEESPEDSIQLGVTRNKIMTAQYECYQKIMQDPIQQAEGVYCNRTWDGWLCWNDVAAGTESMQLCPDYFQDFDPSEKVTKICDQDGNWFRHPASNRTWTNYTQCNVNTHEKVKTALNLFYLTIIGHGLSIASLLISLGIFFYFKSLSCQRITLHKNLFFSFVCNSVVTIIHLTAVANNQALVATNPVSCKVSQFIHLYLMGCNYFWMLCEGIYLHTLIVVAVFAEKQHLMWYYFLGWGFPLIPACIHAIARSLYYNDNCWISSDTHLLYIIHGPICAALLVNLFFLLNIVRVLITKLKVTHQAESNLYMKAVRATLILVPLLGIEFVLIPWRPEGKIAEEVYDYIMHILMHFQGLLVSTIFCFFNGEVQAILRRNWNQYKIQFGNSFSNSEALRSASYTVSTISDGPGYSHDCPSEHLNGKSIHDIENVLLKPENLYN
endogenous CGRP receptor, sequence (O60894 27-148): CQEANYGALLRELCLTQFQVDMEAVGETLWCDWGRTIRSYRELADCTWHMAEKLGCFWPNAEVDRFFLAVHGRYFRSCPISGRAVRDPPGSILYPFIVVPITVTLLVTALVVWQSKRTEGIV

The target of the assay is endogenous CGRP receptor (Homo sapiens, UniProt O60894+Q16602). The assay is described as follows: CGRP functional antagonism using SK-N-MC-BLA (4C10), β-lactamase transcriptional reporter assay. Type of assay: cell-based. The conditions noted are these: SK-N-MC (4C10) cells, inhibition of β-lactamase expression in the presence of 200 pM CGRP. An excerpt:
Measuring CGRP Functional Antagonism Using SK-N-MC-BLA (4C10):
CGRP functional antagonism was characterized in a cell based transcriptional assay using a recombinant SK-N-MC line. To introduce the transcriptional reporter system, SK-N-MC cell line was transduced with a retroviral vector containing β-lactamase gene downstream of cAMP responsive promoter. The expression of β-lactamase is triggered by cAMP increase that is a downstream event of activation of endogenous CGRP receptor. Single clones were separated using Fluorescent Activated Cell Sorting (FACS) based on CGRP induced β-lactamase activity. β-lactamase activity was measured using a fluorescence energy transfer (FRET) dye, CCF4. […] To evaluate functional antagonist activity of compounds in SK-N-MC (4C10) line, compounds were evaluated for their inhibition of β-lactamase expression in the presence of CGRP.
SK-N-MC (4C10) was cultured in Minimal Essential Media (MEM) (Invitrogen) supplemented with 1 mM non-essential amino acids solution (Invitrogen), 100 units/ml Penicillin-Streptomycin (Invitrogen), 1 mM sodium pyruvate (Invitrogen) and 10% fetal bovine serum. For the β-lactamase assay, low serum, 1% FBS in MEM was used. 30,000 cells were plated into each wells of poly-D-lysine coated 384-well plate (Becton Dickinson) a day prior to the assay. SK-N-MC (4C10) was preincubated with compounds for 30 min before the addition of 200 pM CGRP. The assay was incubated for 3 hours at 37° C. to allow β-lactamase expression. CCF4 dye was added and incubated for 2 hours at room temperature. […] Curve fitting and IC50 calculation were carried about using MOD3.
On the technique in general: A reporter such as luciferase makes a cellular process visible.
In general, IC50 refers to the concentration that inhibits the measured activity by half. Take `CC(C)C[C@H](CO)N1C(=O)C(CC(=O)N2CCC(N3Cc4ccccc4NC3=O)CC2)SC1c1ccccc1` (some centres unmarked) [Compound 238]: the IC50 is 1000 to 5000 nM. As for `COc1ccc(C2SC(CC(=O)N3CCC(N4Cc5ccccc5NC4=O)CC3)C(=O)N2CCC(C)C)cc1F` (centres unmarked) [Compound 18], the IC50 lay within 1000 to 5000 nM.

Consider `CC(C)(C)CC1SC(CC(=O)N2CCC(N3CCc4ccccc4NC3=O)CC2)C(=O)N1c1ccc(N2CCOCC2)cc1` (centres unmarked) [Compound 423], for which the IC50 is less than 1000 nM.

Take `CN1CCCN(c2ccccc2C2SC(CC(=O)N3CCC(N4Cc5ccccc5NC4=O)CC3)C(=O)N2CCC(C)(C)C)CC1` (centres unmarked) [Compound 369]: the IC50 is 1000 to 5000 nM. Under `CCC(CC)C1SC(CC(=O)N2CCC(N3CCc4ccccc4NC3=O)CC2)C(=O)N1CCC(C)C` (centres unmarked) [Compound 207] stands less than 1000 nM; under `CN1CCN(c2ccccc2[C@@H]2S[C@](C)(CC(=O)N3CCC(N4Cc5ccccc5NC4=O)CC3)C(=O)N2CCC(C)(C)C)CC1` [Compound 333], 1000 to 5000 nM; under `CC(C)(C)CCN1C(=O)[C@H](CC(=O)N2CCC(N3CCc4ccccc4NC3=O)CC2)SC1c1cccc(F)c1N1CCC(N)C1` (some centres unmarked) [Compound 466], less than 1000 nM. As for `CC(C)(C)CC1SC(CC(=O)N2CCC(n3c(=O)[nH]c4ncccc43)CC2)C(=O)N1c1ccccc1N1CCCCC1` (centres unmarked) [Compound 428], the figure is more than 5000 nM; as for `CC(C)N1CCN(c2c(F)cccc2C2SC(CC(=O)N3CCC(n4cc(-c5ccccc5)[nH]c4=O)CC3)C(=O)N2CCC(C)(C)C)CC1` (centres unmarked) [Compound 342], 1000 to 5000 nM. Regarding `CC(C)CCN1C(=O)C(CC(=O)N2CCC(N3Cc4ccccc4NC3=O)CC2)SC12CCCCC2` (centres unmarked) [Compound 86], the IC50 was in the range of 1000 to 5000 nM.

Regarding `O=C(CC1SC(C2CCOCC2)N(c2ccc(N3CCOCC3)cc2)C1=O)N1CCC(n2c(=O)[nH]c3ncccc32)CC1` (centres unmarked) [Compound 426], the IC50 lay within 1000 to 5000 nM. Under `CC(C)(C)CCN1C(=O)C(CC(=O)N2CCC(N3CCc4ccccc4NC3=O)CC2)SC12CCCc1ccccc12` (centres unmarked) [Compound 308] stands less than 1000 nM. As for `CC(C)(C)CCN1C(=O)[C@H](CC(=O)N2CCC(n3c(=O)[nH]c4ncccc43)CC2)S[C@H]1c1cccc(F)c1N1CCNCC1` [Compound 546], the figure is less than 1000 nM; as for `CC(C)CCN1C(=O)C(CC(=O)N2CCC(n3c(=O)[nH]c4ncccc43)CC2)SC1c1ccccc1N1CCN(C)CC1` (centres unmarked) [Compound 59], less than 1000 nM; as for `CN1CCN(c2ccccc2[C@@H]2SC(CC(=O)N3CCC(n4c(=O)[nH]c5ccccc54)CC3)C(=O)N2CCC(C)(C)C)CC1` (some centres unmarked) [Compound 161], less than 1000 nM. For the compound `CC(C)(C)CCN1C(=O)[C@H](CC(=O)N2CCC(N3CCc4ccccc4NC3=O)CC2)SC1c1cccc(F)c1N1CCC(N2CCCCC2)CC1` (some centres unmarked) [Compound 439], the IC50 was less than 1000 nM. As for `O=C(CC1SC(Cc2ccccc2)N(CC(F)(F)F)C1=O)N1CCC(n2cc(-c3ccccc3)[nH]c2=O)CC1` (centres unmarked) [Compound 189], the figure is more than 5000 nM; as for `CC(C)CCN1C(=O)C(CC(=O)N2CCC(N3CCc4ccccc4NC3=O)CC2)SC1c1ccccc1N(C)C` (centres unmarked) [Compound 152], less than 1000 nM. For the compound `CC(C)CCN1C(=O)C(CC(=O)N2CCC3(CC2)C(=O)NCN3c2ccccc2)SC1c1ccccc1` (centres unmarked) [Compound 186], the IC50 was more than 5000 nM. In the case of `CCCN1C(=O)[C@H](CC(=O)N2CCC(N3CCc4ccccc4NC3=O)CC2)SC1c1cccc(F)c1N1CCN(C(C)(C)C)CC1` (some centres unmarked) [Compound 536], the IC50 is less than 1000 nM.

Take `CN1CCC(N2CCN(c3ccccc3C3SC(CC(=O)N4CCC(n5c(=O)[nH]c6ncccc65)CC4)C(=O)N3CCC(C)(C)C)CC2)CC1` (centres unmarked) [Compound 381]: the IC50 was more than 5000 nM. Under `CC(C)CCN1C(=O)C(CC(=O)N2CCC(N3Cc4ccccc4NC3=O)CC2)SC1c1ccc(Br)cc1` (centres unmarked) [Compound 242] stands 1000 to 5000 nM; under `CC(C)CCN1C(=O)C(CC(=O)N2CCC(N3CCc4ccccc4NC3=O)CC2)SC12CCCCCC2` (centres unmarked) [Compound 91], less than 1000 nM; under `CC(C)(C)CCN1C(=O)C(CC(=O)N2CCC(N3Cc4ccccc4NC3=O)CC2)SC1c1ccccc1N1CCCCC1` (centres unmarked) [Compound 235], 1000 to 5000 nM. On to `CC(C)CCN1C(=O)C(CC(=O)N2CCC(N3CCc4ccccc4NC3=O)CC2)SC1Cc1ccccc1` (centres unmarked) [Compound 98], for which the IC50 is 1000 to 5000 nM.

`CC(C)(C)CCN1C(=O)C(CC(=O)N2CCC(n3c(=O)[nH]c4ncccc43)CC2)SC1c1ccccc1N1CCC(N2CCCCC2)CC1` (centres unmarked) [Compound 387]: the IC50 was less than 1000 nM. Under `Cc1ccc(C2SC(CC(=O)N3CCC(N4CCc5ccccc5NC4=O)CC3)C(=O)N2CCC(C)C)c(C)c1` (centres unmarked) [Compound 73] stands less than 1000 nM; under `CC(C)CCN1C(=O)C(CC(=O)N2CCC(N3Cc4ccccc4NC3=O)CC2)SC1c1ccccc1N(C)C` (centres unmarked) [Compound 121], less than 1000 nM; under `O=C(CC1SC(c2cccc(F)c2F)N(CC2CCCCC2)C1=O)N1CCC(N2Cc3ccccc3NC2=O)CC1` (centres unmarked) [Compound 92], less than 1000 nM.

For `CCN1CCN(c2c(F)cccc2C2SC(CC(=O)N3CCC(n4cc(-c5ccccc5)[nH]c4=O)CC3)C(=O)N2CCC(C)(C)C)CC1` (centres unmarked) [Compound 346], the IC50 was less than 1000 nM. As for `CC(C)(C)CCN1C(=O)C(CC(=O)N2CCC(N3Cc4ccccc4NC3=O)CC2)SC12CCCCCC2` (centres unmarked) [Compound 154], the figure is less than 1000 nM; as for `CCCCCCCC1SC(CC(=O)N2CCC(N3CCc4ccccc4NC3=O)CC2)C(=O)N1CCC(C)C` (centres unmarked) [Compound 74], 1000 to 5000 nM. As for `O=C(CC1SC(c2ccccc2)N(CCc2ccccc2)C1=O)N1CCC(N2CCc3ccccc3NC2=O)CC1` (centres unmarked) [Compound 231], the figure is less than 1000 nM; as for `CC1=CCCC(C)C1C1SC(CC(=O)N2CCC(N3CCc4ccccc4NC3=O)CC2)C(=O)N1CCC(C)C` (centres unmarked) [Compound 181], less than 1000 nM. Under `COc1ccc(F)cc1C1CCN(C(=O)CC2SC(c3ccccc3)N(CCC(C)C)C2=O)CC1` (centres unmarked) [Compound 281] stands more than 5000 nM; under `CC(C)CCN1C(=O)C(CC(=O)N2CCC(N3CCc4ccccc4NC3=O)CC2)SC1c1cccc(OC(F)(F)C(F)F)c1` (centres unmarked) [Compound 247], 1000 to 5000 nM; under `CC(C)(C)CCN1C(=O)C(CC(=O)N2CCC(n3c(=O)[nH]c4ncccc43)CC2)SC1c1cccc(F)c1N1CCN(CC(F)(F)F)CC1` (centres unmarked) [Compound 393], less than 1000 nM. `CC(C)N1CCN(c2cccc(Cl)c2C2S[C@H](CC(=O)N3CCC(N4CCc5ccccc5NC4=O)CC3)C(=O)N2CCC(C)(C)C)CC1` (some centres unmarked) [Compound 433]: the half-maximal inhibitory concentration (IC50) is more than 5000 nM. On to `CN1CCN(c2ccccc2[C@H]2S[C@](C)(CC(=O)N3CCC(N4Cc5ccccc5NC4=O)CC3)C(=O)N2CCC(C)(C)C)CC1` [Compound 334], for which the half-maximal inhibitory concentration (IC50) was less than 1000 nM.

For `CC(C)CC(CO)N1C(=O)C(CC(=O)N2CCC(N3CCc4ccccc4NC3=O)CC2)SC1c1ccccc1` (centres unmarked) [Compound 214], the IC50 fell in the range of 1000 to 5000 nM.

On to `CN1CCN(c2cc(F)ccc2C2SC(CC(=O)N3CCC(n4c(=O)[nH]c5ncccc54)CC3)C(=O)N2CCC(C)(C)C)CC1` (centres unmarked) [Compound 362], for which the IC50 lay in the range of 1000 to 5000 nM. In the case of `CN1CCN(c2ccccc2C2SC(CC(=O)N3CCC(N4CCc5ccccc5NC4=O)CC3)C(=O)N2CC(C)(C)C)CC1` (centres unmarked) [Compound 410], the IC50 was less than 1000 nM. With `CC(C)(C)CCN1C(=O)C(CC(=O)N2CCC(N3CCc4ccccc4NC3=O)CC2)SC1c1ncc[nH]1` (centres unmarked) [Compound 314], the IC50 was more than 5000 nM. Under `CC(C)(C)CCN1C(=O)C(CC(=O)N2CCC(n3c(=O)[nH]c4ccccc43)CC2)SC1c1ccccc1N1CCOCC1` (centres unmarked) [Compound 300] stands less than 1000 nM; under `CCCCCCCC1SC(CC(=O)N2CCC(N3Cc4ccccc4NC3=O)CC2)C(=O)N1CCC(C)C` (centres unmarked) [Compound 71], more than 5000 nM; under `CC(C)CCN1C(=O)C(CC(=O)N2CCC(N3Cc4ccccc4NC3=O)CC2)SC1C1CCCOC1` (centres unmarked) [Compound 209], less than 1000 nM. Under `CN(C)[C@H]1CCN(c2ccccc2C2SC(CC(=O)N3CCC(n4c(=O)[nH]c5ncccc54)CC3)C(=O)N2CCC(C)(C)C)C1` (some centres unmarked) [Compound 404] stands 1000 to 5000 nM; under `O=C(CC1SC(c2ccccc2F)N(CC2CCCCC2)C1=O)N1CCC(N2Cc3ccccc3NC2=O)CC1` (centres unmarked) [Compound 126], less than 1000 nM.

On to `CC(C)(C)CCN1C(=O)[C@H](CC(=O)N2CCC(O)(c3ccc(F)cc3)CC2)SC1c1cccc(F)c1N1CCN(C(C)(C)C)CC1` (some centres unmarked) [Compound 454], for which the IC50 was more than 5000 nM. Turning to `CC(C)CCN1C(=O)C(CC(=O)N2CCC(N3CCc4ccccc4NC3=O)CC2)SC1c1ccccc1OCc1ccccc1` (centres unmarked) [Compound 65], the IC50 was less than 1000 nM. Under `CC(C)CCN1C(=O)C(CC(=O)N2CCC(N3CCc4ccccc4NC3=O)CC2)SC1[C@H](C)c1ccccc1` (some centres unmarked) [Compound 180] stands 1000 to 5000 nM. For `CN1CCN(c2ccccc2[C@H]2SC(CC(=O)N3CCC(n4c(=O)[nH]c5ccccc54)CC3)C(=O)N2CCC(C)(C)C)CC1` (some centres unmarked) [Compound 22], the IC50 fell in the range of 1000 to 5000 nM.

`CCN(CC)CCN1C(=O)C(CC(=O)N2CCC(N3Cc4ccccc4NC3=O)CC2)SC1c1ccccc1` (centres unmarked) [Compound 82]: the IC50 is 1000 to 5000 nM.
